Data on 19 compounds can be found in patent US20180305332A1, “Bispiperidinyl Derivatives as Liver X Receptor Beta Agonists, Compositions, and Their Use” (Merck Sharp & Dohme Corp., priority 2015, published 2018).

For test [1], the target named is T1, GST tagged LXRbeta LBD (ligand binding domain) (Homo sapiens, UniProt P55055).
T1 construct: purchased Invitrogen pv4658.pps
T1 sequence (P55055 222-460 limits assumed): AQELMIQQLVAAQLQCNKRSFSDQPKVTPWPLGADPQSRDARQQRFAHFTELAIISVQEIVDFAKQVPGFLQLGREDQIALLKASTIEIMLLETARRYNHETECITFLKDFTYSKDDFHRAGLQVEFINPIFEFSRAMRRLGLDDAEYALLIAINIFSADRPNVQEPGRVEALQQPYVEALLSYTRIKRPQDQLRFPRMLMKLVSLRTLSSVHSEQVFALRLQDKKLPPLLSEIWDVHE
The test can be described thus: LanthaScreen TR-FRET Liver X Receptor Coactivator Assay, LXR beta-LBD. Conditions: relative to reference T0901317; for EC50: Inflection Point (potency), co-activator recruitment, read-out: LXR beta IP; for Emax / LXR beta act @ max dose (%): activity at max dose (efficacy); for Emax: read-out: LXR beta act @ max dose (%). It counts as biochemical. As to the method:
(§1) Potency (Inflection Point, IP) and efficacy (Emax) are evaluated via compound-induced co-activator recruitment to glutathione-S-transferase (GST) tagged LXRbeta and LXRalpha LBD (ligand binding domain) proteins in relation to reference dual agonist compound T0901317 (N-(2,2,2-Trifluoroethyl)-N-[4-[2,2,2-trifluoro-1-hydroxy-1-(trifluoromethyl)ethyl] phenyl]benzenesulfonamide) using the LanthaScreen™ TR-FRET Liver X Receptor Coactivator Assays according to manufacturer's instructions (Invitrogen catalog number pv4658.pps and pv4655). While running the LanthaScreen™ TR-FRET Liver X Receptor Coactivator Assay, LXR alpha-LBD or LXR beta-LBD was added to ligand test compounds followed by addition of a mixture of a fluorescein-labelled coactivator peptide and terbium-conjugated anti-GST antibody. After an incubation period at room temperature, TR-FRET (time-resolved fluorescence resonance energy transfer) was measured using a filter-based instrument capable of TR-FRET, e.g. PerkinElmer Envision.

Test [2] has as its target T2, GST tagged LXRalpha LBD (ligand binding domain) (Homo sapiens, UniProt Q13133).
T2 construct: purchased Invitrogen pv4655
T2 sequence (Q13133 209-447 limits assumed): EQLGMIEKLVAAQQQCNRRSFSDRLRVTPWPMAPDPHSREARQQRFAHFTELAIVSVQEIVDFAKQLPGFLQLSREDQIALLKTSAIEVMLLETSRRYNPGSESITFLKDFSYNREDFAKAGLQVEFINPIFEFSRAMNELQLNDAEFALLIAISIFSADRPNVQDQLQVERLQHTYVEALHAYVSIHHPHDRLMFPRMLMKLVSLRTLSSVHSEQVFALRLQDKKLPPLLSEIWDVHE
As to the kind of experiment: LanthaScreen TR-FRET Liver X Receptor Coactivator Assay, LXR alpha-LBD. It counts as biochemical. Conditions: relative to reference T0901317; for EC50 / LXR alpha IP (nM): Inflection Point (potency), co-activator recruitment; for EC50: read-out: LXR alpha IP; for Emax / LXR alpha act @ max dose (%): activity at max dose (efficacy); for Emax: read-out: LXR alpha act @ max dose (%). How it is done: as §1
(In general: In TR-FRET formats the signal depends on donor and acceptor labels being close together.)

As to `CN(C)C(=O)c1ccc(N2CCC(C3CCN(C(=O)C4(c5ccccc5Cl)CC4)CC3)CC2)cc1Cl` [Example A-86, 2-chloro-4-(1′-{[1-(2-chlorophenyl)cyclopropyl]carbonyl}-4,4′-bipiperidin-1-yl)-N,N-dimethylbenzamide], in test [1], the EC50 was found to be 16 nM and the Emax was determined as 112%. Also, in test [2], the EC50 was 671 nM and the Emax stood at 73%.

As to `CC(C)CC(O)(C(=O)N1CCC(C2CCN(c3ccc(C(=O)N(C)C)c(Cl)c3)CC2)CC1)C(F)(F)F` (stereo not shown) [Example A-89, 2-chloro-4-{1′-[2-hydroxy-4-methyl-2-(trifluoromethyl)pentanoyl]-4,4′-bipiperidin-1-yl}-N,N-dimethylbenzamide], in test [1], the EC50 was found to be 102 nM and the “LXR beta act @ max dose (%)” value is 94%. Also, in test [2], the EC50 was determined as 1220 nM and the “LXR alpha act @ max dose (%)” value was determined as 36%.

`CN(C)C(=O)c1ccc(N2CCC(C3CCN(C(=O)C(O)(C4CC4)C(F)(F)F)CC3)CC2)cc1Cl` (single isomer, unassigned) [Example A-9, 2-chloro-4-[1′-(2-cyclopropyl-3,3,3-trifluoro-2-hydroxypropanoyl)-4,4′-bipiperidin-1-yl]-N,N-dimethylbenzamide]: in test [1], the EC50 is 116 nM and the “LXR beta act @ max dose (%)” value was determined as 110%. Besides, in test [2], the EC50 was found to be 1200 nM and the “LXR alpha act @ max dose (%)” value was 56%.

Take `CN(C)C(=O)c1ccc(N2CCC(C3CCN(S(=O)(=O)c4c(Cl)cccc4C(F)(F)F)CC3)CC2)cc1Cl` [Example A-105, 2-chloro-4-(1′-{[2-chloro-6-(trifluoromethyl)phenyl]sulfonyl}-4,4′-bipiperidin-1-yl)-N,N-dimethylbenzamide]: in test [1], the EC50 came to 55 nM and the Emax worked out at 118%. Besides, in test [2], the EC50 stood at 1090 nM and the Emax amounted to 44%.

Take `CN(C)C(=O)c1ccc(N2CCC(C3CCN(C(=O)C4(c5cc(F)cc(F)c5)CCCC4)CC3)CC2)cc1Cl` [Example A-79, 2-chloro-4-(1′-{[1-(3,5-difluorophenyl)cyclopentyl]carbonyl}-4,4′-bipiperidin-1-yl)-N,N-dimethylbenzamide]: in test [1], the EC50 was 216 nM and the Emax was 125%. Moreover, in test [2], the EC50 was 2540 nM and the Emax was 35%.

Consider `O=C(c1ccc(N2CCC(C3CCN(C(=O)[C@](O)(c4ccccc4)C(F)(F)F)CC3)CC2)cc1Cl)N1CCCC1` [Example E-20], for which, in test [1], the EC50 was found to be 197 nM and the Emax turned out to be 78%. Moreover, in test [2], the “LXR alpha IP (nM)” value is given as “NO IP” and the Emax amounted to 25%.

Regarding `CN(C)C(=O)c1ccc(N2CCC(C3CCN(S(=O)(=O)c4ccccc4)CC3)CC2)cc1Cl` [Example A-99, 2-chloro-N,N-dimethyl-4-[1′-(phenylsulfonyl)-4,4′-bipiperidin-1-yl]benzamide], in test [1], the EC50 is 496 nM and the Emax came out at 54%. For the same compound, in test [2], the “LXR alpha IP (nM)” value is recorded as “NO IP” and the Emax worked out at 0%.

In the case of `CC(C)C(O)(C(=O)N1CCC(C2CCN(c3ccc(C(=O)N4CCOCC4)c(Cl)c3)CC2)CC1)C(F)(F)F` (stereo not shown) [Example E-8, 2-({1′-[3-chloro-4-(morpholin-4-ylcarbonyl)phenyl]-4,4′-bipiperidin-1-yl}carbonyl)-1,1,1-trifluoro-3-methylbutan-2-ol], in test [1], the EC50 is 149 nM and the Emax came to 65%. Besides, in test [2], the EC50 is 1190 nM and the Emax stood at 29%.

In the case of `CCN(C)C(=O)c1ccc(N2CCC(C3CCN(C(=O)[C@](O)(c4ccccc4)C(F)(F)F)CC3)CC2)cc1Cl` [Example E-60, 2-chloro-N-ethyl-N-methyl-4-{1′-[(2R)-3,3,3-trifluoro-2-hydroxy-2-phenylpropanoyl]-4,4′-bipiperidin-1-yl}benzamide], the EC50 in test [1] amounted to 100 nM; in test [2] it was 1850 nM. The Emax was determined as 114% in test [1] and 34% in test [2].

Take `CN(C)C(=O)c1ccc(N2CCC(C3CCN(C(=O)C4(C(F)(F)F)CCCCC4)CC3)CC2)cc1Cl` [Example A-27, 2-chloro-N,N-dimethyl-4-(1′-{[1-(trifluoromethyl)cyclohexyl]carbonyl}-4,4′-bipiperidin-1-yl)benzamide]: the EC50 in test [1] is 26 nM; in test [2], 300 nM. In addition, the Emax stood at 119% in test [1] and 70% in test [2].

In the case of `CC(C)(C)OC(=O)NC1CN(C(=O)c2ccc(N3CCC(C4CCN(C(=O)[C@](O)(c5ccccc5)C(F)(F)F)CC4)CC3)cc2Cl)C1` [Example E-56, tert-butyl {1-[(2-chloro-4-{1′-[(2R)-3,3,3-trifluoro-2-hydroxy-2-phenylpropanoyl]-4,4′-bipiperidin-1-yl}phenyl)carbonyl]azetidin-3-yl}carbamate], in test [1], the EC50 is 21 nM and the Emax came out at 89%. For the same compound, in test [2], the EC50 worked out at 488 nM and the Emax was determined as 45%.

For the compound `CCCC(O)(C(=O)N1CCC(C2CCN(c3ccc(C(=O)N(C)C)c(Cl)c3)CC2)CC1)C(F)(F)F` (stereo not shown) [Example A-84, 2-chloro-4-{1′-[2-hydroxy-2-(trifluoromethyl)pentanoyl]-4,4′-bipiperidin-1-yl}-N,N-dimethylbenzamide], in test [1], the EC50 worked out at 173 nM and the “LXR beta act @ max dose (%)” value is 116%. In test [2], the EC50 came out at 1370 nM and the “LXR alpha act @ max dose (%)” value came out at 63%.

Consider `O=C(c1c(F)cccc1F)N1CCC(C2CCN(c3ccc(C(=O)N4CCCC4C(F)(F)F)c(Cl)c3)CC2)CC1` (stereo not shown) [Example E-13, 1-(3-chloro-4-{[2-(trifluoromethyl)pyrrolidin-1-yl]carbonyl}phenyl)-1′-[(2,6-difluorophenyl)carbonyl]-4,4′-bipiperidine], for which, in test [1], the EC50 was found to be 473 nM and the Emax was 46%. Also, in test [2], the EC50 was found to be 2150 nM and the Emax was found to be 15%.

On to `CC(C)C(O)(C(=O)N1CCC(C2CCN(c3ccc(C(=O)N(C)C)c(Cl)n3)CC2)CC1)C(F)(F)F` (stereo not shown) [Example B-4, 2-chloro-6-{1′-[2-hydroxy-3-methyl-2-(trifluoromethyl)butanoyl]-4,4′-bipiperidin-1-yl}-N,N-dimethylpyridine-3-carboxamide], for which, in test [1], the EC50 was 26 nM and the Emax was found to be 123%. Moreover, in test [2], the EC50 amounted to 493 nM and the Emax stood at 48%.

With `O=C(c1ccc(N2CCC(C3CCN(C(=O)[C@](O)(c4ccccc4)C(F)(F)F)CC3)CC2)cc1Cl)N(CCF)CCF` [Example E-67, 2-chloro-N,N-bis(2-fluoroethyl)-4-{1′-[(2R)-3,3,3-trifluoro-2-hydroxy-2-phenylpropanoyl]-4,4′-bipiperidin-1-yl}benzamide], the EC50 in test [1] was found to be 171 nM; in test [2], 2100 nM. The results for the Emax in test [1] and in test [2] were 106% and 30%, respectively.

On to `COc1cccc(C2(C(=O)N3CCC(C4CCN(c5ccc(C(=O)N(C)C)c(Cl)c5)CC4)CC3)CCC2)c1` [Example A-93, 2-chloro-4-(1′-{[1-(3-methoxyphenyl)cyclobutyl]carbonyl}-4,4′-bipiperidin-1-yl)-N,N-dimethylbenzamide], for which, in test [1], the EC50 turned out to be 171 nM and the Emax was 100%. Also, in test [2], the EC50 was 2270 nM and the Emax came to 22%.

`COc1cccc([C@@](O)(C(=O)N2CCC(C3CCN(c4ccc(C(=O)N(C)C)c(Cl)c4)CC3)CC2)C(F)(F)F)c1` (single isomer, unassigned) [Example A-65]: in test [1], the EC50 is 119 nM and the Emax worked out at 100%. Further, in test [2], the EC50 was 2120 nM and the Emax came out at 19%.

Regarding `CN(C)C(=O)c1ccc(N2CCC(C3CCN(C(=O)C4(c5ccc(Cl)c(Cl)c5)CCC4)CC3)CC2)cc1Cl` [Example A-74, 2-chloro-4-(1′-{[1-(3,4-dichlorophenyl)cyclobutyl]carbonyl}-4,4′-bipiperidin-1-yl)-N,N-dimethylbenzamide], in test [1], the EC50 is 413 nM and the Emax worked out at 57%. In test [2], the “LXR alpha IP (nM)” value is “NO IP” and the Emax stood at 0%.

With `CN(C)C(=O)c1ccc(N2CCC(C3CCN(C(=O)[C@](O)(c4ccccc4)C(F)(F)F)CC3)CC2)cc1Cl` [Example A-13, 2-chloro-N,N-dimethyl-4-{1′-[(2R)-3,3,3-trifluoro-2-hydroxy-2-phenylpropanoyl]-4,4′-bipiperidin-1-yl}benzamide], in test [1], the EC50 turned out to be 52 nM and the Emax came out at 106%. Besides, in test [2], the EC50 is 1510 nM and the Emax is 19%.
